# Assay results reported in patent EP0821959A2 (priority 1996, dated 1998).
# Assays:
# [1] = target: muscarinic cholinergic receptors; test: 3H-oxotremorine-M binding study (oxotremorine-M versus N-methylscopolamine, Freedman et al.); conditions: inhibition of binding of 3H-oxotremorine-M; read-out: inhibition costant (Ki)
# [2] = target: muscarinic cholinergic receptors; conditions: 3H-QNB binding assay
# m4 receptors = m4 receptors (Homo sapiens, UniProt P08173); type: cell-based; conditions: CHO m4 cells treated with pertussis toxin
# Sequence of m4 receptors (P08173 whole entry): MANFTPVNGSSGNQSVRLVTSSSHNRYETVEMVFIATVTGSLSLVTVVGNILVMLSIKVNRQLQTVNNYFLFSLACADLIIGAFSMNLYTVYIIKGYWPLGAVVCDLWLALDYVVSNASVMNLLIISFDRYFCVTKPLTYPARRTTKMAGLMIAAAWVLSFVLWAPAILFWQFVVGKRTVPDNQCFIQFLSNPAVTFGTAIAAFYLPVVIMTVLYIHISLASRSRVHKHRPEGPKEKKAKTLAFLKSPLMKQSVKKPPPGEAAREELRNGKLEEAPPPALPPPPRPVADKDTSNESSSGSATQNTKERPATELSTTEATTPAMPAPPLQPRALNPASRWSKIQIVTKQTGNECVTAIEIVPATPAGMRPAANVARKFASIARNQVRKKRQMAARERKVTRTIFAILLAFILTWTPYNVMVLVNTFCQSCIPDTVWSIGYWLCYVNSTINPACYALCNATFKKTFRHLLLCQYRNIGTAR
structure (smiles),measurement,setting,value
"CCCCCCOc1nsnc1C1=CCCN(C)C1 [Xanomeline, 3-(4-hexyloxy-1,2,5-thiadiazol-3-yl)-1,2,5,6-tetrahydro-1-methylpyridine]",Ki,[1],0.002 µM
same,IC50,[2],< 1000 µM
same,formation of cAMP,m4 receptors,efficaciously and potently stimulated the formation of cAMP
